Results published in PubChem BioAssay AID1204 (EPA DSSTox, 2008).
Results filed as inconclusive are left out. Activity calls are given as the source filed them.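 How the source made its calls: active means relative estrogen receptor binding affinity above 1E-5, where estradiol scores 100; inconclusive means weak binder, under half inhibition at top dose, or affinity below 1E-5; inactive means no binding seen, affinity zero.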

Test system: estrogen receptor (rat uterine cytosol)
Test: DSSTox (NCTRER) National Center for Toxicological Research Estrogen Receptor Binding Database;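 on relative binding affinity: ratio of estradiol IC50 over compound IC50 times 100 so estradiol equals 100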
Details: rat uterine cytosol ER competitive binding, RBA; for relative binding affinity: stronger effect = higher value
From the text: Researchers within FDA's National Center for Toxicological Research (NCTR) generated a database of experimental estrogen receptor binding results for the express purpose of developing improved QSAR models to predict ER binding affinities.The NCTR ER database is a structurally diverse set of natural, synthetic, and environmental estrogens covering most known estrogenic classes and spanning a wide range of biological activity. It represents the largest published ER binding database of same-assay results generated in a single laboratory. […] Information on the percent purity and purchasing source for all chemicals are not included in the DSSTox SDF, but can be obtained from the original NCTR ER Source database and Main Citations listed below. The main citation (Fang et al., 2001) surveys the NCTR ER database from a chemical class based, structure-activity relationship (SAR) perspective. Qualitative SAR characteristics of the NCTR ER database are discussed and a set of general hierarchical rules for identifying potential estrogens are presented. The DSSTox NCTRER SDF augments the original NCTR ER database with chemical class and SAR information abstracted from Fang et al. (2001). The DSSTox SDF file supplements the measured ER relative binding affinity for each chemical (ER_RBA) with chemical class assignment to one of 6 major estrogenic classes further divided into 20 subclasses (ChemClass_ERB), along with a qualitative activity measure, ActivityCategory_ER_RBA. A brief narrative SAR rationale pertaining to ER RBA patterns observed by Fang et al. (2001) for each of the 20 subclasses within the database are provided in the field, ActivityCategory_Rationale_ChemClass_ERB. The original NCTR ER database, from which the expanded DSSTox NCTRER was formed, is contained within a larger Endocrine Disruptor Knowledge Base (EDKB) accessible from the FDA Source Website. That website provides online access to a relational database comprised of in vitro and in vivo experimental data for about 2000 natural and synthetic compounds, much of this extracted from the literature and representing testing in many laboratories. Data are included for biological assays that measure estrogenic and androgenic activity. Estrogenic endpoints include in vitro assays for estrogen receptor competitive binding affinity, cell proliferation, and reporter-gene assays, and in vivo assays for uterotrophic activity (i.e., uterine weight gain and vaginal cornification). The database also contains a bibliography of over 1200 citations, many of which include abstracts.
Estrogen receptor relative binding affinity is determined using a competitive receptor binding assay as described in NCTRER Ref (Blair et al., 2000). Briefly, a chemical competes with radiolabeled E2 (i.e., estradiol) for binding to the ER in rat uterine cytosol and the concentration of chemical that causes 50% inhibition of E2 binding (i.e., IC50) is measured. The ER_RBA is calculated by dividing the IC50 of E2 (9X10-10M) by the IC50 of the competitor and multiplying by 100 (E2 RBA = 100). The validated assay tested 1nM E2 with concentrations of competitor ranging from 1nM to 1mM. The larger the ER_RBA values, the greater the binding affinity; ER_RBA > 100 means compound has greater binding affinity than natural ER ligand, E2. […] Activity Score is mapping of LOG_ER_RBA values (ER-RBA>1E-5), spanning activity range [MIN, MAX] onto Integer 20-100 Activity range, where 100 is highest potency and 20 is lowest active potency. If Activity Outcome is "active": Activity Score = 80 * INTEGER[(LOG_ER_RBA - MIN)/(MAX […] MIN)]. If Activity Outcome is "inconclusive" (i.e., slight binder): Activity Score = 5.

[1] = ChemClass_ERB: Phytoestrogens Flavones
[2] = ChemClass_ERB: Diphenylmethanes DDTs
[3] = ChemClass_ERB: Steroids Without aromatic A ring
[4] = ChemClass_ERB: Diphenylmethanes Diphenolalkanes
[5] = ChemClass_ERB: Diphenylmethanes Benzophenones
[6] = ChemClass_ERB: Phenols Alkyloxy
[7] = ChemClass_ERB: Steroids With aromatic A ring
[8] = ChemClass_ERB: Phytoestrogens Chalconoids
[9] = ChemClass_ERB: Phytoestrogens Mycoestrogens
[10] = ChemClass_ERB: Phytoestrogens Isoflavones
[11] = ChemClass_ERB: Phytoestrogens Flavanones
[12] = ChemClass_ERB: Biphenyls nonchlorinated

For `CNC(=O)Oc1cccc2c1OC(C)(C)C2`, the outcome (ChemClass_ERB: Misc) was “inactive”.

In the case of `O=c1cc(-c2ccccc2)oc2cc(O)ccc12`, the outcome [1] is reported as “inactive”.

`Clc1ccc(C(c2ccc(Cl)cc2)C(Cl)(Cl)Cl)cc1` was tested, and the outcome [2] was “inactive”.

With `C[C@]12CC[C@H]3[C@@H](CCC4=CC(=O)CC[C@@]43C)[C@@H]1CC[C@H]2O` the outcome [3] was “inactive”.

`O=C(O)c1ccccc1C(c1ccc(O)cc1)c1ccc(O)cc1` gave a relative binding affinity [4] of 0.00021%.

In the case of `O=C(O)CCCCCCC(=O)O`, the outcome (ChemClass_ERB: Misc) is reported as “inactive”.

Compound `O=S(=O)(c1ccc(O)cc1)c1ccc(O)cc1` has a relative binding affinity [5] of 0.00085%.

In the case of `C/C=C/c1ccc(O)c(OC)c1`, the outcome [6] is reported as “inactive”.

In the case of `COc1ccccc1-c1cc(=O)c2cc(O)ccc2o1`, the outcome [1] is reported as “inactive”.

`CCC(C)(C)c1ccc(O)cc1` gave a relative binding affinity (ChemClass_ERB: Phenols Alkyl) of 0.00054%.

`C[C@]12CC[C@@H]3c4ccc(O)cc4C[C@@H](CCCCCCCCCS(=O)CCCC(F)(F)C(F)(F)F)[C@H]3[C@@H]1CC[C@@H]2O` (some centres not stated) was tested, and the relative binding affinity [7] was 37.1%.

`O=C(/C=C/c1ccccc1)c1ccccc1` showed a relative binding affinity [8] of 0.00151%.

`O=c1cc(-c2ccccc2)oc2cc(O)cc(O)c12` was tested, and the outcome [1] was “inactive”.

With `CCNc1nc(Cl)nc(NCC)n1` the outcome (ChemClass_ERB: Misc) was “inactive”.

With `CC(C)(c1ccc(O)cc1)c1ccc(O)cc1` the relative binding affinity [4] was 0.0078%.

`C[C@H]1CCC[C@H](O)CCCCCc2cc(O)cc(O)c2C(=O)O1` was tested, and the relative binding affinity [9] was 30.2%.

For `O=P(Oc1ccccc1)(Oc1ccccc1)Oc1ccccc1`, the outcome (ChemClass_ERB: Misc) was “inactive”.

With `OCCCCCCCCO` the outcome (ChemClass_ERB: Misc) was “inactive”.

In the case of `COC(=O)c1ccccc1C(=O)OC`, the outcome (ChemClass_ERB: Misc) is reported as “inactive”.

Work on `O=c1cc(-c2ccccc2)oc2cc(O)c(O)c(O)c12` yielded a relative binding affinity [1] of 0.0009%.

`CCCCC(CC)COC(=O)CCCCC(=O)OCC(CC)CCCC` (configuration not stated) was tested, and the outcome (ChemClass_ERB: Misc) was “inactive”.

With `O=Cc1ccco1` the outcome (ChemClass_ERB: Misc) was “inactive”.

For `O=c1c(O)c(-c2ccc(O)cc2O)oc2cc(O)cc(O)c12`, the relative binding affinity [1] was 0.00081%.

Compound `C[C@]12CC[C@@H]3c4ccc(O)cc4CC[C@H]3[C@@H]1CC[C@H]2O` has a relative binding affinity [7] of 3.09%.

Compound `O=c1c(-c2ccc(O)c(O)c2)coc2cc(O)ccc12` has a relative binding affinity [10] of 0.00446%.

With `CC[C@H](CC[C@@H](C)[C@H]1CC[C@H]2[C@@H]3CC=C4C[C@@H](O)CC[C@]4(C)[C@H]3CC[C@]12C)C(C)C` the outcome [3] was “inactive”.

`C[C@]12CC[C@@H]3c4ccc(O)cc4[C@@H](O)C[C@H]3[C@@H]1CC[C@@H]2O` gave a relative binding affinity [7] of 0.708%.

For `O=c1c(-c2ccc(O)cc2)coc2cc(O[C@@H]3O[C@H](CO)[C@@H](O)[C@H](O)[C@H]3O)cc(O)c12`, the outcome [10] was “inactive”.

For `Oc1ccc(Cc2ccc(O)cc2)cc1`, the relative binding affinity [4] was 0.00095%.

With `CCCCOC(=O)c1ccc(N)cc1` the outcome (ChemClass_ERB: Misc) was “inactive”.

With `COc1nc(NC(C)C)nc(NC(C)C)n1` the outcome (ChemClass_ERB: Misc) was “inactive”.

Compound `C[C@]12CC[C@@H]3c4ccccc4CC[C@H]3[C@@H]1CCC2=O` has a relative binding affinity [7] of 0.0063%.

In the case of `CCC(C)(c1ccc(O)cc1)c1ccc(O)cc1`, the relative binding affinity [4] is reported as 0.0851%.

`CC[C@H](c1ccc(O)cc1)[C@@H](CC)c1ccc(O)cc1` gave a relative binding affinity (ChemClass_ERB: DES Hexestrol derivatives) of 301%.

In the case of `COc1cc(C=O)ccc1O`, the outcome [6] is reported as “inactive”.

`CCCCCCC=O` was tested, and the outcome (ChemClass_ERB: Misc) was “inactive”.

With `Clc1ccc(-c2ccccc2Cl)cc1` the relative binding affinity (ChemClass_ERB: Biphenyls PCBs) was 0.00024%.

With `CC(C)(C)c1cc(Cc2cc(C(C)(C)C)c(O)c(C(C)(C)C)c2)cc(C(C)(C)C)c1O` the outcome [4] was “inactive”.

With `ClC1C(Cl)C(Cl)C(Cl)C(Cl)C1Cl` (configuration not stated) the outcome (ChemClass_ERB: Misc) was “inactive”.

`C[Si](C)(O[Si](C)(C)c1ccccc1)c1ccccc1` gave a relative binding affinity (ChemClass_ERB: Misc) of 0.00069%.

With `CN(C)c1ccc(Cc2ccc(N(C)C)cc2)cc1` the outcome (ChemClass_ERB: Misc) was “inactive”.

`O=C1C=CC(=C(c2ccc(O)cc2)c2ccc(O)cc2)C=C1` was tested, and the relative binding affinity [4] was 0.0316%.

`O=c1c(O)c(-c2ccc(O)c(O)c2)oc2cc(O)cc(O)c12` was tested, and the outcome [1] was “inactive”.

For `Oc1ccccc1Cl`, the outcome (ChemClass_ERB: Phenols Alkyl) was “inactive”.

`O=C1CC(c2ccc(O)cc2)Oc2ccccc21` (configuration not stated) gave a relative binding affinity [11] of 0.00223%.

`COc1ccc(-c2coc3cc(O)ccc3c2=O)cc1` showed a relative binding affinity [10] of 0.00104%.

For `O=C(CCc1ccc(O)cc1)c1c(O)cc(O)cc1O`, the relative binding affinity [8] was 0.069%.

`Oc1c(Cl)cc(-c2cc(Cl)c(O)c(Cl)c2)cc1Cl` was tested, and the relative binding affinity (ChemClass_ERB: Biphenyls PCBs) was 0.00056%.

`C[C@]12CC[C@H]3[C@@H](CCC4=CC(=O)CC[C@@]43C)[C@@H]1CC[C@@H]2O` was tested, and the outcome [3] was “inactive”.

For `O=C1CCC(N2C(=O)c3ccccc3C2=O)C(=O)N1` (configuration not stated), the outcome (ChemClass_ERB: Misc) was “inactive”.

For `ClC1=C(Cl)C2(Cl)C3C(Cl)C=CC3C1(Cl)C2(Cl)Cl` (configuration not stated), the outcome (ChemClass_ERB: Misc) was “inactive”.

`ClC1=C(Cl)[C@]2(Cl)[C@@H]3[C@@H]4C[C@@H]([C@H]5O[C@@H]45)[C@@H]3[C@@]1(Cl)C2(Cl)Cl` was tested, and the outcome (ChemClass_ERB: Misc) was “inactive”.

Work on `Oc1ccc(Cl)cc1Cc1cc(Cl)ccc1O` yielded a relative binding affinity [4] of 0.0035%.

`Oc1ccccc1-c1ccccc1` was tested, and the outcome [12] was “inactive”.

In the case of `CC(C)CCC[C@@H](C)[C@H]1CC[C@H]2[C@@H]3CC=C4C[C@@H](O)CC[C@]4(C)[C@H]3CC[C@]12C`, the outcome [3] is reported as “inactive”.

`Clc1c(Cl)c(Cl)c(Cl)c(Cl)c1Cl` was tested, and the outcome (ChemClass_ERB: Misc) was “inactive”.

With `COc1ccc(C(=O)c2ccccc2O)c(O)c1` the outcome [5] was “inactive”.

`O=C1c2c(O)cc(O)cc2O[C@H](c2ccc(O)c(O)c2)[C@H]1O` was tested, and the outcome [11] was “inactive”.

For `Oc1ccc(-c2ccccc2)cc1`, the relative binding affinity [12] was 0.00091%.

With `C=CC(C)(O)CC/C=C(\C)CCC=C(C)C` (configuration not stated) the outcome (ChemClass_ERB: Misc) was “inactive”.

`CCCCN(C)C(=O)CCCCCCCCCC[C@@H]1Cc2cc(O)ccc2[C@H]2CC[C@]3(C)[C@@H](O)CC[C@H]3[C@H]12` showed a relative binding affinity [7] of 14.4%.

For `CCc1cccc(O)c1`, the relative binding affinity (ChemClass_ERB: Phenols Alkyl) was 0.00013%.

`C[C@@H]1C[C@H]2[C@@H]3CCC4=CC(=O)C=C[C@]4(C)[C@@]3(F)[C@@H](O)C[C@]2(C)[C@@]1(O)C(=O)CO` was tested, and the outcome [3] was “inactive”.

In the case of `ClC1=C(Cl)[C@]2(Cl)[C@@H]3[C@H]4C=CC(C4)[C@@H]3C1(Cl)C2(Cl)Cl`, the outcome (ChemClass_ERB: Misc) is reported as “inactive”.

With `CCNc1nc(Cl)nc(NC(C)C)n1` the outcome (ChemClass_ERB: Misc) was “inactive”.

Compound `C[C@@H]1CCC[C@H](O)CCC/C=C/c2cc(O)cc(O)c2C(=O)O1` has a relative binding affinity [9] of 0.204%.

Work on `CCCCCCCOC(=O)c1ccc(O)cc1` yielded a relative binding affinity (ChemClass_ERB: Phenols Parabens) of 0.00812%.

In the case of `Cc1ccc2c(C)cccc2c1`, the outcome (ChemClass_ERB: Misc) is reported as “inactive”.

In the case of `COc1ccc(C(c2ccc(O)cc2)C(Cl)(Cl)Cl)cc1` (configuration not stated), the relative binding affinity [2] is reported as 0.129%.

In the case of `Clc1ccc(-c2ccc(Cl)cc2Cl)c(Cl)c1`, the outcome (ChemClass_ERB: Biphenyls PCBs) is reported as “inactive”.

`C[C@H]1CCC[C@H](O)CCC/C=C/c2cc(O)cc(O)c2C(=O)O1` was tested, and the relative binding affinity [9] was 42.7%.

`CCCCCCCCCCCCc1ccc(O)cc1` was tested, and the relative binding affinity (ChemClass_ERB: Phenols Alkyl) was 0.0186%.
